Where two headings read alike, the source gives them in different places.
Key:
SlGSTD1 [1] = target: T1, SlGSTD1 (Spodoptera litura, UniProt A0A9J7IUS4); experiment: GSH conjugation, A340, Michaelis-Menten fit; assay type: biochemical; conditions: GSH 30 μL of 100 μmol mL^−1 in about 1.1 mL; PBS 0.1 mol L^−1 pH 7.0
T1 construct: gene LOC111355915
T1 sequence (A0A9J7IUS4 1-221): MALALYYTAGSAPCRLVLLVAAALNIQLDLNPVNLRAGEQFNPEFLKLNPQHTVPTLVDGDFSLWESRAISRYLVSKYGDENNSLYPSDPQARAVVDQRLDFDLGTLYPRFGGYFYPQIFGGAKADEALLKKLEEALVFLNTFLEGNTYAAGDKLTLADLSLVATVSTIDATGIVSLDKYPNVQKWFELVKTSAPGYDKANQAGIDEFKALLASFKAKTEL

SlGSTD1 [2] = target: T1, SlGSTD1; experiment: inhibition of GSH-CDNB conjugation, A340; assay type: biochemical

Row | Structure (SMILES) | IC50 (SlGSTD1 [2]) | also measured
1 | O=[N+]([O-])c1ccc(Cl)c([N+](=O)[O-])c1 [CDNB] |  | Km (SlGSTD1 [1]): 1680 ± 110 µM
2 | CCOC(=O)/C=C\C(=O)OCC [DEM, reference compound] |  | IC50 (SlGSTD1 [2]; read-out: IC50): 2.1 ± 0.3 µM
3 | CCOP(=S)(OCC)Oc1nc(Cl)c(Cl)cc1Cl [chlorpyrifos] | 170 ± 15.2 µM | 
4 | CC1(C)C(/C=C(\Cl)C(F)(F)F)C1C(=O)OC(C#N)c1cccc(Oc2ccccc2)c1 (centres unmarked) [cyhalothrin] | 124 ± 10.3 µM | 
5 | CC(C)C(C(=O)OC(C#N)c1cccc(Oc2ccccc2)c1)c1ccc(Cl)cc1 (centres unmarked) [fenvalerate] | 21.6 ± 3.2 µM | 
